Test results taken from ChEMBL document CHEMBL1153984, “Ganoderic acid DM: anti-androgenic osteoclastogenesis inhibitor” (Bioorg Med Chem Lett, 2009).
Blank lines part the entries; values can stand above or below the molecule they belong to. The source made the active and inactive calls. The rule behind the calls is not given here.

How the values were obtained:
[1] = (§1) Inhibition of 5-alpha-reductase in rat liver microsome assessed as conversion of [14C] testosterone to [14C] dihydrotestosterone; type: microsomes
[2] = tested on: PC-3; test: Antiproliferative activity against human PC3 cells after 3 days by NR assay; type: functional, cell-based
[3] = Inhibition of osteoclastogenesis in RANKL-stimulated mouse RAW264 cells at 12.5 uM after 3 days by TRAP assay; type: functional; conditions: RAW264.7, 72 h
[4] = organism: Rattus norvegicus; test: as §1; type: microsomes
[5] = Cytotoxicity against mouse RAW264 cells assessed as cell number at 12.5 uM after 3 days by WST1 assay; type: cell-based; conditions: raw264, 72 h
[6] = Cytotoxicity against mouse RAW264 cells assessed as viable cells at 25 uM after 3 days by WST1 assay; type: cell-based; conditions: read-out: Activity
[7] = tested on: PC-3; test: Antiproliferative activity against human PC3 cells at 12.5 to 50 uM after 3 days by NR assay; type: functional, cell-based
[8] = tested on: LNCaP; test: Growth inhibition of human LNCAP cells assessed as decrease in cell viability after 3 days by NR assay; type: functional, cell-based
[9] = tested on: RAW264; test: Inhibition of osteoclastogenesis in RANKL-stimulated mouse RAW264 cells at 25 uM after 3 days by TRAP assay; type: functional, cell-based
[10] = target: T1, Androgen receptor (Homo sapiens) (UniProt P10275); test: Inhibition of DHT binding to human recombinant androgen receptor ligand binding domain at 15 uM by fluorescence polarization; parameters: scale not given: the % may be the effect or the level left
T1 sequence (whole entry): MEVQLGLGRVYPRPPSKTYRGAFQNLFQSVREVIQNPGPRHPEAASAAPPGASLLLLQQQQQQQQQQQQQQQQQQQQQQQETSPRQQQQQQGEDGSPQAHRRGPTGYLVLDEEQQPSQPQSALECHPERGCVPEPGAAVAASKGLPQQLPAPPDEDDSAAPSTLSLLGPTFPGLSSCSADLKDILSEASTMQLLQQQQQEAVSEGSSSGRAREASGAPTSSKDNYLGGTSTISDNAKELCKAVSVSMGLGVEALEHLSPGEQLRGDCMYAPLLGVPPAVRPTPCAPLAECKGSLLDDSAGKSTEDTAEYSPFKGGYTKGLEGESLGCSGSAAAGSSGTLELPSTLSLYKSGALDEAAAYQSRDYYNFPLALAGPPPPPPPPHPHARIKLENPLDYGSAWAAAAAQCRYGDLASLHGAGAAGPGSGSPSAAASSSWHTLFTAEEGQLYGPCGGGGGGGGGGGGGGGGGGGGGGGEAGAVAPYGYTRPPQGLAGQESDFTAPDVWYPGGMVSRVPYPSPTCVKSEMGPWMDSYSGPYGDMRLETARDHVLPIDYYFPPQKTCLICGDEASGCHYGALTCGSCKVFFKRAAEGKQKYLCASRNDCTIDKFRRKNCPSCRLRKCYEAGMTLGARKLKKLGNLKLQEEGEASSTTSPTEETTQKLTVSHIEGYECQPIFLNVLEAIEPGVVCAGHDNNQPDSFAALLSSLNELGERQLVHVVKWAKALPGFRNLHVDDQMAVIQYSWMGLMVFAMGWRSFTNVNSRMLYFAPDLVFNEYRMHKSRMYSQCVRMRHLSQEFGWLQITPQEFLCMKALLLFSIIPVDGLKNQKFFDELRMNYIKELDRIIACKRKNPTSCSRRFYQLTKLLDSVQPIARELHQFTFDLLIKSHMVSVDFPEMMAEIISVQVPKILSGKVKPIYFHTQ

[11] = tested on: LNCaP; test: Growth inhibition against dihydrotestosterone-induced human LNCAP cell proliferation assessed as decrease in cell viability after 3 dayssby NR assay; type: functional, cell-based
[12] = tested on: LNCaP; test: Growth inhibition against testosterone-induced human LNCAP cell proliferation assessed as decrease in cell viability after 3 dayssby NR assay; type: functional, cell-based

- IC50 [1]: 0.73 µM
SMILES: CC(C)(C)NC(=O)[C@H]1CC[C@H]2[C@@H]3CC[C@H]4NC(=O)C=C[C@]4(C)[C@H]3CC[C@]12C [FINASTERIDE]

- IC50 [1]: 116 µM
SMILES: CC/C=C\C/C=C\C/C=C\CCCCCCCC(=O)O [LINOLENIC ACID]

SMILES: C/C(=C\CC[C@@H](C)[C@H]1CC[C@@]2(C)C3=CC[C@H]4C(C)(C)[C@@H](O)CC[C@]4(C)C3=CC[C@]12C)CO
- Activity [2]: inactive

SMILES: C/C(=C/CC[C@@H](C)[C@H]1CC[C@@]2(C)C3=C(CC[C@]12C)[C@@]1(C)CCC(=O)C(C)(C)[C@@H]1CC3=O)C(=O)O [GANODERIC ACID DM]
- inhibition at 12.5 µM [3]: 40%
- Activity [4]: Dose-dependent effect
- IC50 [1]: 10.6 µM
- Activity [5]: Non-toxic
- viability at 72 h, 25 µM [6]: 72%
- Activity [7]: Active
- Activity [8]: Dose-dependent effect
- Activity [9]: inactive
- Activity [10]: 50%
- Activity [11]: Dose-dependent effect
- Activity [12]: Dose-dependent effect
